Key:
[1] = test system: blood-brain barrier (BBB); assay: Effect of branched chain fatty acids on BBB permeability by qualitative Evan's Blue (EB) evaluation in rats; assay type: in vivo, rat (male Sprague-Dawley)
Experimental: Evaluation of Effect of Branched Fatty Acids on Blood-brain Barrier Permeability
The experiments were carried out on male Sprague-Dawley rats weighing 250-320 gr. They were anesthetized with Rampun-Imalgen. The right common carotid artery was exposed.
The test compounds were dissolved in 0.1M phosphate buffered physiological saline (pH=7.4) at the following test concentrations: 1.6; 8; 20; 40; 200 and 1000 μg/ml.
The test compound was infused into the right common carotid artery at a rate of 6 ml/min. for 30 s. The control rats were infused with buffer. Evan's Blue (EB) solution at a concentration of […] (2 g Evan's Blue, 0.9 g NaCl in 100 ml water) was injected intravenously 50 minutes prior to the termination of the experiment.
In the case of 45 min experiment, five minutes prior to the infusion of the tested material, 4 ml/kg body wt dose of Evans Blue solution was injected intravenously.
At the end of the experimental time period the animals were perfused with 100 ml of saline solution through the heart and decapitated. The degree of BBB opening, in terms of extravasation of Evan's Blue albumin, was graded on the basis of visual assessment of the degree of staining of the brain ato the method of Rapoport et al. (Rapoport et al., 1980, Amer. J. Physiol. 258, 421-431), and the results are presented in Tables 1 and 2.
The results presented are qualitative with four degrees of Evan's Blue extravasation according to Rapoport et al. Minus signs represents no staining and three plus signs represent maximal staining.

rodent brains = assay: Neurotoxicity by histopathology on fixed sectioned rodent brains; assay type: in vivo, rat; details: 20 or 200 μg/ml via internal carotid artery, 3 or 72 hr post infusion
Experimental: Potential neurotoxicity after treatment with M 3,14 was assessed by means of histopathology on fixed sectioned rodent brains.
Nine rodent brains were fixed in 10% neutral buffered formalin. These brains were obtained from rats infused with either buffer, 20 μg/ml, or 200 μg/ml M3,14 via the left internal carotid artery. The experiment was terminated and the samples collected either 3 or 72 hr. post infusion. Specimen and group identification were as follows:
control: 3 hr (2), 72 hr (1);
Upon receipt, coronal sections were prepared through the forebrain, midbrain and hindbrain. The right-left orientation was identified by placing a small cut in the cortex on the right side of the section. The sections were embedded as a single block, processed routinely in paraffin, sectioned at five microns and stained with hematoxylin and eosin. Sections were evaluated qualitatively.

[2] = test system: bovine brain capillary endothelial cells in co-culture with astrocytes; assay: Transcellular permeability (albumin-FITC clearance), in vitro coculture model of the BBB; assay type: cell-based; details: 0.24 mg/ml
Experimental: 1 hr incubation with the test material and five different concentrations: 0.04; 0.08; 0.16; 0.24; 0.32 mg/ml corresponding to 0.125; 0.25; 0.5; 0.75; 1×10^-3 M, were chosen for this experiment.
Stock solution of DP-BFA was added directly to the coculture medium (upper compartment) in order to obtain a dilution of 1:40.
Permeability studies was carried out on the monolayer of endothelial cells using a transcellular tracer: albumin-FITC (fluorescein isothiocyanate), MW=66500. There is no albumin receptor on endothelial cells. Albumin crossed the monolayer by a non-specific transport.
To obtain a concentration-dependent transport parameter, the clearance principle was used like sucrose or inulin (see paragraph 2.2.).
Albumin-FITC was used on endothelial cells at the concentration of 100 μg/ml in Ringer-Hepes 0.4% albumin.
The fluorescence of each sample was determined at λexcitation of 495 and λemission of 525 using a fluorescence spectrophotometer F-2000 (Hitachi).
In that case, the results are presented as clearance (μl) in function of time (min) and clearance at 180 minutes for each condition.

[3] = test system: bovine brain capillary endothelial cells in co-culture with astrocytes; assay: Reversibility of DP-BFA effect on the paracellular permeability of the BBB in vitro; assay type: cell-based; details: for permeability of the monolayer for sucrose and inulin: 1 hour incubation
Experimental: In regard with the previous results, 0.16 mg/ml (paracellular opening after 1 hr) and 0.32 mg/ml (paracellular and transcellular openings after 1 hr) were chosen to study the reversibility of the effect of DP-BFA.
Endothelial cells are cocultured 12 days, on the twelfth culture day DP-BFA was added to the cultures for 1 hour, and then removed by replacement of the culture medium. The cultures then were maintained for a further 24 hours without DP-BFA, and subsequently assayed for paracellular permeability.
Permeability studies were carried out on the monolayer of endothelial cells, using two paracellular tracers: inulin-^3 H and sucrose-^14C.

CCCCCCCCCCCCCCC(CCC)C(=O)O (centres unmarked) [M 3/14, 2-propylhexadecanoic acid]
Visual EB ([1]; 1.6 μg/ml (5 μM/ml), 180 min): - | Visual EB ([1]; 8 μg/ml (25 μM/ml), 180 min): + | Visual EB ([1]; 20 μg/ml (62.5 μM/ml), 180 min): + | Visual EB ([1]; 40 μg/ml (125 μM/ml), 45 min): ++ | Visual EB ([1]; 40 μg/ml (125 μM/ml), 180 min): ++ | Visual EB ([1]; 125 μM, 180 min, intracarotid infusion): ++ | Visual EB ([1]; 200 μg/ml (625 μM/ml), 45 min): +++ | Visual EB ([1]; 625 μM, 45 min, intracarotid infusion): +++ | Visual EB ([1]; 1000 μg/ml (3125 μM/ml), 45 min): +++ | BBB permeability enhancement, potency ranking ([1]; Table 1 compounds): most potent BBB permeability enhancer | histopathology (neurotoxicity) (rodent brains; listed as M 3,14): no treatment related changes observed | histopathology (neurotoxicity) (rodent brains; listed as M3,14): No treatment related changes were observed | non-specific transcellular transport ([2]; 1 hr incubation): increase of non-specific transcellular transport | activation at 240 µg/mL ([2]; Bos taurus, 1 hour incubation, read-out: increase in permeability of the monolayer for albumin (clearance at 180 minutes)): 268% | reversibility of paracellular permeability (clearance at 45 minutes) ([3]; 0.16 mg/ml 1 hr, then 24 hrs without DP-BFA): complete reversibility | permeability of the monolayer for sucrose and inulin ([3]; 0.16 mg/ml): increase in the permeability | decrease of paracellular permeability (clearance at 45 minutes) ([3]; 0.32 mg/ml 1 hr, then 24 hrs without DP-BFA): 50% | permeability of the monolayer for sucrose and inulin ([3]; 0.32 mg/ml): increase in the permeability | paracellular breakdown (opening of the tight junctions) ([3]; 0.32 mg/ml, 1 hr): paracellular breakdown (opening of the tight junctions) | reversibility of DP-BFA effect ([3]; higher concentrations): Partial reversibility

From patent publication US6319952A, “Compositions and methods for reversibly increasing permeability of biomembranes” (D-Pharm Ltd., priority 1997, dated 2001)
